Test results taken from the kinase profiling compilation of Christmann-Franck et al. (2016).
Blank lines part the entries; values can stand above or below the compound they belong to.

What was measured:
Experiment in all cases: radiometric filter-binding kinase assay
[1] = target: MAP2K2 (human) (UniProt P36507)
[2] = target: STK3 (human) (UniProt Q13188)
[3] = target: MAPK3 (human) (UniProt P27361)
[4] = target: EEF2K (human) (UniProt O00418)
[5] = target: MAPKAPK2 (human) (UniProt P49137)
[6] = target: MELK (human) (UniProt Q14680)
[7] = target: IKBKE (human) (UniProt Q14164)
[8] = target: MAP3K5 (human) (UniProt Q99683)
[9] = target: PAK7 (human) (UniProt Q9P286)
[10] = target: FGFR1 (human) (UniProt P11362)
[11] = target: CAMKK2 (human) (UniProt Q96RR4)
[12] = target: MAPK13 (human) (UniProt O15264)
[13] = target: MAP2K6 (human) (UniProt P52564)
[14] = target: SYK (human) (UniProt P43405)
[15] = target: PRKCZ (human) (UniProt Q05513)
[16] = target: GSK3B (human) (UniProt P49841)
[17] = target: EPHB4 (human) (UniProt P54760)
[18] = target: DAPK1 (human) (UniProt P53355)
[19] = target: PIM3 (human) (UniProt Q86V86)
[20] = target: ERBB4 (human) (UniProt Q15303)
[21] = target: MAPKAPK5 (human) (UniProt Q8IW41)
[22] = test system: SGK1 (human), O00141 [S422D]
[23] = target: HIPK3 (human) (UniProt Q9H422)
[24] = target: MKNK1 (human) (UniProt Q9BUB5)
[25] = target: PIM1 (human) (UniProt P11309)
[26] = target: IGF1R (human) (UniProt P08069)
[27] = target: MARK1 (human) (UniProt Q9P0L2)
[28] = target: BRSK2 (human) (UniProt Q8IWQ3)
[29] = target: MAPK9 (human) (UniProt P45984)
[30] = target: PRKACA (human) (UniProt P17612)
[31] = target: MAPK12 (human) (UniProt P53778)
[32] = target: BRSK1 (human) (UniProt Q8TDC3)
[33] = target: PHKG1 (human) (UniProt Q16816)
[34] = target: DYRK1A (human) (UniProt Q13627)
[35] = test system: PRKAA1 or PRKAA2 (rat); details: accession and sequence are those of the human protein
[36] = target: PIM2 (human) (UniProt Q9P1W9)

PIM1 (human), sequence (P11309 whole entry, looked up): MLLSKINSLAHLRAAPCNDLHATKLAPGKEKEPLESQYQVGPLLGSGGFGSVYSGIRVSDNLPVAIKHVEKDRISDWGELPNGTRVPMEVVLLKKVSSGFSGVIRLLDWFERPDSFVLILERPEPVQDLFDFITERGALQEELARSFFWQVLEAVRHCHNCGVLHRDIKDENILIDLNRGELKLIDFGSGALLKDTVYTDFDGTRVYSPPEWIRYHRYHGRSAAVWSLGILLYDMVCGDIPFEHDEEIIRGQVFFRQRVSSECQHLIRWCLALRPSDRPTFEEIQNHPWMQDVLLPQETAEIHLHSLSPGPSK
MAPKAPK2 (human), sequence (P49137 whole entry, looked up): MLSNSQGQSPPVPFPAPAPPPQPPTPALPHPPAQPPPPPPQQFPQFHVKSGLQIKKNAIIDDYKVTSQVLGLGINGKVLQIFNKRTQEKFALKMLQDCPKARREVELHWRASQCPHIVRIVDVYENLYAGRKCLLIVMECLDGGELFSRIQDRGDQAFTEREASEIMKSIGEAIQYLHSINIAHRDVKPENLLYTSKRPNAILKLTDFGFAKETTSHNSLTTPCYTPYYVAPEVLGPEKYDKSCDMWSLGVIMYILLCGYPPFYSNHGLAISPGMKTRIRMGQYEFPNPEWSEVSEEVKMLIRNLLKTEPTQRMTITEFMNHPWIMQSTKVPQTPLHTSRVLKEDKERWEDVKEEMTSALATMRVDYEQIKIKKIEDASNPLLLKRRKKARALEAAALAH
MAPKAPK5 (human), sequence (Q8IW41 whole entry, looked up): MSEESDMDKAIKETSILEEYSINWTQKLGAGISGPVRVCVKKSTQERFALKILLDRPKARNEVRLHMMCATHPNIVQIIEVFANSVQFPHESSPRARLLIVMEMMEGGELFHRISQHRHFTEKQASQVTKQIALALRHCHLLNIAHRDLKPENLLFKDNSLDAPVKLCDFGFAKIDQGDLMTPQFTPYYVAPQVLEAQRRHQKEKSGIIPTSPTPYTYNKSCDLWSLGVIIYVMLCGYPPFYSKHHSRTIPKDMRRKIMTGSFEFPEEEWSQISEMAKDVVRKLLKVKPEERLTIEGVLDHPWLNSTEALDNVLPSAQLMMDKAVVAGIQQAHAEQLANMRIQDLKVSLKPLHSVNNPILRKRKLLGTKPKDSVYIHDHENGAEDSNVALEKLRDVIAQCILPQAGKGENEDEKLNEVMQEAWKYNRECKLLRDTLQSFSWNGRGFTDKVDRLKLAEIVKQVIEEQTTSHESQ
IKBKE (human), sequence (Q14164 whole entry, looked up): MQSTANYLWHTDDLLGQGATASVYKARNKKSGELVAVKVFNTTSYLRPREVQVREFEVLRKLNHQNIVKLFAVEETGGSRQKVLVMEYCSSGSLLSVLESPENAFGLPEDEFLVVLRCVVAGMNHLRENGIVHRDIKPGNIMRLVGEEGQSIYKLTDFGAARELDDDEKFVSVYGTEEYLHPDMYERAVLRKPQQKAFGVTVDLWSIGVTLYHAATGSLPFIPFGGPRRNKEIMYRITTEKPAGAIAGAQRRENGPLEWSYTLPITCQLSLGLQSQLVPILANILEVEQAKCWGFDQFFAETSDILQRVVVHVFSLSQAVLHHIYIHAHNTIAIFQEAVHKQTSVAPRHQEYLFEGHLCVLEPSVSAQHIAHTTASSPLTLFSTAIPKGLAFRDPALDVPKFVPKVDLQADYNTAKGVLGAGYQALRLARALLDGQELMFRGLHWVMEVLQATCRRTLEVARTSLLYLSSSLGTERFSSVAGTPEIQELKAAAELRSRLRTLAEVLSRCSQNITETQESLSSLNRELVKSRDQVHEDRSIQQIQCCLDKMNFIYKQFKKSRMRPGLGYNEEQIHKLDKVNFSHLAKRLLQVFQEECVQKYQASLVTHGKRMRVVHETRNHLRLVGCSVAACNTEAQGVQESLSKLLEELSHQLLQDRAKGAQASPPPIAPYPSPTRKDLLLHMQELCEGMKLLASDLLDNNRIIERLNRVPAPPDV
MAPK9 (human), sequence (P45984 whole entry, looked up): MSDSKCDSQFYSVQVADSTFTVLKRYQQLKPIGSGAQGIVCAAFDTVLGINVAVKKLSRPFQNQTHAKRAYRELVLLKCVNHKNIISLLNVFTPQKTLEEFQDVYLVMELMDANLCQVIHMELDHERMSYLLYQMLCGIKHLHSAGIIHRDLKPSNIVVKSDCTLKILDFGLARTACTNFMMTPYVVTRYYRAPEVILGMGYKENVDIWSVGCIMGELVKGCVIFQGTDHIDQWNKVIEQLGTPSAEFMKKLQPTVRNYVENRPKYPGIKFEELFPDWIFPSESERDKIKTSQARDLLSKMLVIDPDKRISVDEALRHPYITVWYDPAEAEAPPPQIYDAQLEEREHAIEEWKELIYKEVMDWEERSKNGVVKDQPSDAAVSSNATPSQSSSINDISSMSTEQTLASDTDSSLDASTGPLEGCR
MAP2K6 (human), sequence (P52564 whole entry, looked up): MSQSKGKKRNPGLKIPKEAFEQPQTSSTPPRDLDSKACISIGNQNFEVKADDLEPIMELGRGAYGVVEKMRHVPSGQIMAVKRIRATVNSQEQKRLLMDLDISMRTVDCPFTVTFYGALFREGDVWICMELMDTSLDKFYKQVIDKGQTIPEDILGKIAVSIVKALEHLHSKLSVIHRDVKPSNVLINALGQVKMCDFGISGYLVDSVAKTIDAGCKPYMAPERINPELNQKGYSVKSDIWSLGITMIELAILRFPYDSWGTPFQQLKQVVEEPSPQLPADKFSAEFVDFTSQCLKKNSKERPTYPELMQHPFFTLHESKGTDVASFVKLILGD
MAPK12 (human), sequence (P53778 whole entry, looked up): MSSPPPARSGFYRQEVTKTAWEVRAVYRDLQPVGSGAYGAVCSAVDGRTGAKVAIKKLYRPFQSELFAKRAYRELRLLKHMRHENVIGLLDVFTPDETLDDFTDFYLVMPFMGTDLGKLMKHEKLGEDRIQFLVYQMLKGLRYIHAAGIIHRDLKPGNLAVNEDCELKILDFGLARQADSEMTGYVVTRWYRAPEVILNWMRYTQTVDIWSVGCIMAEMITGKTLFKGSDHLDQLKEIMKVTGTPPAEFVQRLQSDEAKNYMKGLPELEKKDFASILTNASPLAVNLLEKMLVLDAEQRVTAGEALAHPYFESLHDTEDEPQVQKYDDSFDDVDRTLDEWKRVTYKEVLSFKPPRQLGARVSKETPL
PRKCZ (human), sequence (Q05513 whole entry, looked up): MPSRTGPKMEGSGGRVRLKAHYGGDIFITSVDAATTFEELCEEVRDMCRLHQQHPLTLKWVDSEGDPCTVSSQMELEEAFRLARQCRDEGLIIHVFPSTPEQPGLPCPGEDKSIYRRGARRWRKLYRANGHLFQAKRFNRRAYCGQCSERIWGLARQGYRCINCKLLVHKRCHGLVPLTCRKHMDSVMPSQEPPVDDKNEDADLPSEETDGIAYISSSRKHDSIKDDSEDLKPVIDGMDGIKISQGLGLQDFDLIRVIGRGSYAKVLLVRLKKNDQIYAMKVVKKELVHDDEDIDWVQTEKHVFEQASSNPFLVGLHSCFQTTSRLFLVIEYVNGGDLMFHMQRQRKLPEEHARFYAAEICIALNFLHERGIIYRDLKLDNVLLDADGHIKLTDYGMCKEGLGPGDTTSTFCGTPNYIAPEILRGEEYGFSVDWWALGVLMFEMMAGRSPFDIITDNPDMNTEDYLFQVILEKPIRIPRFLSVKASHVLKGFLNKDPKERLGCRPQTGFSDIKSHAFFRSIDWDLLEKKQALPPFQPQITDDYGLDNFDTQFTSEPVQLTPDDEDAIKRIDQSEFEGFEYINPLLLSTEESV
MKNK1 (human), sequence (Q9BUB5 whole entry, looked up): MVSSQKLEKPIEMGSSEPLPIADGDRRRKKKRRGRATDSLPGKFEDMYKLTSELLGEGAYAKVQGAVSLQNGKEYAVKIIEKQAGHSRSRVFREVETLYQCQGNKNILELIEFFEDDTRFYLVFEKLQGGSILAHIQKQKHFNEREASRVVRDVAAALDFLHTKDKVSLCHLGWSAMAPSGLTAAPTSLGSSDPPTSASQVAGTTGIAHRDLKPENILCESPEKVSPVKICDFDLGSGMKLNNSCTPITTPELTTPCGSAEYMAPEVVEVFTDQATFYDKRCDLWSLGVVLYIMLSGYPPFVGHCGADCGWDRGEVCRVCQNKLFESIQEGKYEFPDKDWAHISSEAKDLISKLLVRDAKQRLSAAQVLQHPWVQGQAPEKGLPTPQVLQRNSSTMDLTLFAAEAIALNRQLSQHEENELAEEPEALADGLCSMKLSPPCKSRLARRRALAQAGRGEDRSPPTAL
GSK3B (human), sequence (P49841 whole entry, looked up): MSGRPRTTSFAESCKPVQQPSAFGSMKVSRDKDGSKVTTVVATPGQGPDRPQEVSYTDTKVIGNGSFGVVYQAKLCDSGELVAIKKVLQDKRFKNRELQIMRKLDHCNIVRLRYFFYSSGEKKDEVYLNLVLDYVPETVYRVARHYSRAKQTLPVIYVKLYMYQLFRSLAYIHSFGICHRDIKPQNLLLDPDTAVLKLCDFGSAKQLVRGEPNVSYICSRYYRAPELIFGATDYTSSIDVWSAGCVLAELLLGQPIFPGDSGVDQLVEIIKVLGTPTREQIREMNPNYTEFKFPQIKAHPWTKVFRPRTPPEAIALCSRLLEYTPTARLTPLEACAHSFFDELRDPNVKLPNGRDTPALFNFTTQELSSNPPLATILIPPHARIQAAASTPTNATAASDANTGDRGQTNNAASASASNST

- residual activity ([1]; compound 10.0 µM): 81%
- residual activity ([2]; compound 10.0 µM): 104%
- residual activity ([3]; compound 10.0 µM): 102%
- residual activity ([4]; compound 10.0 µM): 83%
- residual activity ([5]; compound 10.0 µM): 82%
- residual activity ([5]; compound 100.0 µM): 80%
- residual activity ([6]; compound 10.0 µM): 96%
- residual activity ([7]; compound 10.0 µM): 85%
- residual activity ([8]; compound 10.0 µM): 91%
- residual activity ([9]; compound 10.0 µM): 73%
- residual activity ([10]; compound 10.0 µM): 118%
- residual activity ([11]; compound 10.0 µM): 90%
- residual activity ([12]; compound 10.0 µM): 81%
- residual activity ([12]; compound 100.0 µM): 116%
- residual activity ([13]; compound 10.0 µM): 94%
- residual activity ([14]; compound 10.0 µM): 105%
- residual activity ([15]; compound 10.0 µM): 108%
- residual activity ([16]; compound 10.0 µM): 88%
- residual activity ([16]; compound 100.0 µM): 66%
- residual activity ([17]; compound 10.0 µM): 99%
- residual activity ([18]; compound 10.0 µM): 93%
- residual activity ([19]; compound 10.0 µM): 83%
- residual activity ([20]; compound 10.0 µM): 87%
- residual activity ([21]; compound 10.0 µM): 82%
- residual activity ([21]; compound 100.0 µM): 64%
- residual activity ([22]; compound 10.0 µM): 101%
- residual activity ([22]; compound 100.0 µM): 60%
- residual activity ([23]; compound 10.0 µM): 103%
- residual activity ([24]; compound 10.0 µM): 97%
- residual activity ([25]; compound 10.0 µM): 87%
- residual activity ([26]; compound 10.0 µM): 88%
- residual activity ([27]; compound 10.0 µM): 96%
- residual activity ([28]; compound 10.0 µM): 98%
- residual activity ([29]; compound 10.0 µM): 88%
- residual activity ([30]; compound 10.0 µM): 101%
- residual activity ([30]; compound 100.0 µM): 70%
- residual activity ([31]; compound 10.0 µM): 99%
- residual activity ([31]; compound 100.0 µM): 80%
- residual activity ([32]; compound 10.0 µM): 106%
- residual activity ([33]; compound 10.0 µM): 114%
- residual activity ([33]; compound 100.0 µM): 86%
- residual activity ([34]; compound 10.0 µM): 97%
- residual activity ([34]; compound 100.0 µM): 90%
- residual activity ([35]; compound 10.0 µM): 92%
- residual activity ([35]; compound 100.0 µM): 60%
- residual activity ([36]; compound 10.0 µM): 93%
SMILES: Cc1ccc2c(c1)C(=O)[C@@]1(O)CCN(c3ccccc3)C1=N2

- residual activity ([1]; compound 10.0 µM): 74%
- residual activity ([1]; compound 100.0 µM): 19%
- residual activity ([2]; compound 10.0 µM): 60%
- residual activity ([2]; compound 50.0 µM): 36%
- residual activity ([2]; compound 100.0 µM): 20%
- residual activity ([3]; compound 10.0 µM): 83%
- residual activity ([3]; compound 50.0 µM): 102%
- residual activity ([3]; compound 100.0 µM): 63%
- residual activity ([4]; compound 10.0 µM): 89%
- residual activity ([4]; compound 50.0 µM): 73%
- residual activity ([4]; compound 100.0 µM): 64%
- residual activity ([5]; compound 10.0 µM): 77%
- residual activity ([5]; compound 50.0 µM): 32%
- residual activity ([5]; compound 100.0 µM): 30%
- residual activity ([6]; compound 10.0 µM): 46%
- residual activity ([6]; compound 50.0 µM): 64%
- residual activity ([6]; compound 100.0 µM): 21%
- residual activity ([7]; compound 10.0 µM): 69%
- residual activity ([7]; compound 50.0 µM): 47%
- residual activity ([7]; compound 100.0 µM): 12%
- residual activity ([8]; compound 10.0 µM): 140%
- residual activity ([8]; compound 100.0 µM): 250%
- residual activity ([9]; compound 10.0 µM): 58%
- residual activity ([9]; compound 50.0 µM): 50%
- residual activity ([9]; compound 100.0 µM): 39%
- residual activity ([10]; compound 10.0 µM): 109%
- residual activity ([10]; compound 50.0 µM): 95%
- residual activity ([10]; compound 100.0 µM): 50%
- residual activity ([11]; compound 10.0 µM): 87%
- residual activity ([11]; compound 50.0 µM): 48%
- residual activity ([11]; compound 100.0 µM): 78%
- residual activity ([12]; compound 10.0 µM): 107%
- residual activity ([12]; compound 50.0 µM): 116%
- residual activity ([12]; compound 100.0 µM): 124%
- residual activity ([13]; compound 10.0 µM): 85%
- residual activity ([13]; compound 100.0 µM): 84%
- residual activity ([14]; compound 10.0 µM): 106%
- residual activity ([14]; compound 50.0 µM): 36%
- residual activity ([14]; compound 100.0 µM): 42%
- residual activity ([15]; compound 10.0 µM): 96%
- residual activity ([15]; compound 50.0 µM): 67%
- residual activity ([15]; compound 100.0 µM): 28%
- residual activity ([16]; compound 10.0 µM): 80%
- residual activity ([16]; compound 50.0 µM): 17%
- residual activity ([16]; compound 100.0 µM): 46%
- residual activity ([17]; compound 10.0 µM): 82%
- residual activity ([17]; compound 100.0 µM): 49%
- residual activity ([18]; compound 10.0 µM): 107%
- residual activity ([18]; compound 100.0 µM): 83%
- residual activity ([19]; compound 10.0 µM): 18%
- residual activity ([19]; compound 50.0 µM): 5%
- residual activity ([19]; compound 100.0 µM): 7%
- residual activity ([20]; compound 10.0 µM): 33%
- residual activity ([20]; compound 100.0 µM): 8%
- residual activity ([21]; compound 10.0 µM): 52%
- residual activity ([21]; compound 50.0 µM): 25%
- residual activity ([21]; compound 100.0 µM): 15%
- residual activity ([22]; compound 10.0 µM): 103%
- residual activity ([22]; compound 50.0 µM): 54%
- residual activity ([22]; compound 100.0 µM): 48%
- residual activity ([23]; compound 10.0 µM): 97%
- residual activity ([23]; compound 50.0 µM): 52%
- residual activity ([23]; compound 100.0 µM): 43%
- residual activity ([24]; compound 10.0 µM): 104%
- residual activity ([24]; compound 50.0 µM): 66%
- residual activity ([24]; compound 100.0 µM): 93%
- residual activity ([25]; compound 10.0 µM): 26%
- residual activity ([25]; compound 50.0 µM): 5%
- residual activity ([25]; compound 100.0 µM): 7%
- residual activity ([26]; compound 10.0 µM): 94%
- residual activity ([26]; compound 100.0 µM): 65%
- residual activity ([27]; compound 10.0 µM): 59%
- residual activity ([27]; compound 100.0 µM): 68%
- residual activity ([28]; compound 10.0 µM): 64%
- residual activity ([28]; compound 50.0 µM): 63%
- residual activity ([28]; compound 100.0 µM): 28%
- residual activity ([29]; compound 10.0 µM): 94%
- residual activity ([29]; compound 50.0 µM): 89%
- residual activity ([29]; compound 100.0 µM): 88%
- residual activity ([30]; compound 10.0 µM): 89%
- residual activity ([30]; compound 50.0 µM): 41%
- residual activity ([30]; compound 100.0 µM): 95%
- residual activity ([31]; compound 10.0 µM): 95%
- residual activity ([31]; compound 50.0 µM): 80%
- residual activity ([31]; compound 100.0 µM): 83%
- residual activity ([32]; compound 10.0 µM): 76%
- residual activity ([32]; compound 100.0 µM): 51%
- residual activity ([33]; compound 10.0 µM): 96%
- residual activity ([33]; compound 50.0 µM): 65%
- residual activity ([33]; compound 100.0 µM): 73%
- residual activity ([34]; compound 10.0 µM): 75%
- residual activity ([34]; compound 50.0 µM): 60%
- residual activity ([34]; compound 100.0 µM): 26%
- residual activity ([35]; compound 10.0 µM): 135%
- residual activity ([35]; compound 50.0 µM): 67%
- residual activity ([35]; compound 100.0 µM): 62%
- residual activity ([36]; compound 10.0 µM): 71%
- residual activity ([36]; compound 50.0 µM): 17%
- residual activity ([36]; compound 100.0 µM): 18%
SMILES: N#Cc1c(O)c2c(-c3ccc(-c4ccccc4O)cc3)csc2[nH]c1=O
